Experimental data reported in US9499705B2, “Radically polymerizable photo-curable ink jet ink composition” (Seiko Epson Corporation, priority 2013, dated 2016).

How the values were obtained:
[1] = Redispersibility after long-time storage (rate of change in absorbance of agitated ink after one year); type: physicochemical; conditions: redispersing effect of the saturated aliphatic carboxylic acid in the ink
Procedure: Ink bags containing respective ink compositions were allowed to stand at room temperature (25° C.) with the rectangular face of the ink bag in a horizontal position for a year. […] Subsequently, the ink bag was turned upside down and was reciprocally moved 50 times in the same manner with the rectangular face of the ink gab in a horizontal position. After the ink composition in the ink bag was thus agitated, the ink composition was sampled from the upper side in the ink gab with the ink inlet facing up. Then, the absorbance of the sampled ink composition was measured with a spectrophotometer U-3300 (manufactured by Hitachi) and compared with the absorbance before the storage. […] As a larger amount of sediment settles, the density of the white pigment in the ink composition tends to be reduced, and accordingly the absorbance after storage is generally low.

[2] = Acid dissociation constant pKa of saturated aliphatic carboxylic acids; type: physicochemical; conditions: for pKa1: first acid dissociation constant; for pKa2: second acid dissociation constant
Excerpt: The acid dissociation constant pKa1 of the saturated aliphatic carboxylic acid is preferably 4.0 or more, more preferably 4.0 to 4.5, still more preferably 4.1 to 4.5. If the saturated aliphatic carboxylic acid is divalent or more polyvalent, the second acid dissociation constant pKa2 is preferably 5.0 or more. The acid dissociation constant pKa can be measured by, for example, titration, absorptiometry, or capillary electrophoresis.

SMILES | Redispersion [1] | pKa1 [2] | pKa2 [2] | pKa3 ([2]; third acid dissociation constant)
CCCCCCCCCCCCCCCC(=O)O [Palmitic acid] | Good | 4.64 |  | 
O=C(O)CC(O)(CC(=O)O)C(=O)O [Citric acid] | Fair | 2.87 | 4.35 | 5.69
O=C(O)CCC(=O)O [Succinic acid] | Good | 4 | 5.24 | 
O=C(O)CCCCC(=O)O [Adipic acid] | Excellent | 4.26 | 5.03 | 
